Assay results published in patent US10815274B2, “Immunogenic WT-1 peptides and methods of use thereof” (Memorial Sloan Kettering Cancer Center, priority 2012, dated 2020).
Where a SMILES comes first, the peptide text is derived from it.

Columns and labels:
[1] = tested on: autologous PHA blasts loaded with peptide; test: Cr51 release assay vs autologous PHA blasts loaded with WT1 total pool or peptide; format: cell-based, human; conditions: 25:1 E:T ratio
WT1- autologous APC = test: Cr51 release assay, cytotoxic CTL response vs unmodified autologous APC; format: cell-based, human; conditions: 50:1 E:T
PHA blasts = test: Cr51 release assay, cytotoxic CTL response vs PHA blasts from the same leukemic patient; format: cell-based, human; conditions: 50:1 E:T, PHA blasts from same patients as the leukemia
[2] = tested on: WT1+ allo APC with restricting HLA allele loaded with WT1 peptide; test: Cr51 release assay, cytotoxic CTL response vs peptide loaded allogeneic APC sharing restricting HLA allele (HLA restriction); conditions: 50:1 E:T
[3] = tested on: WT1 peptide loaded autologous APC; test: Cr51 release assay, cytotoxic CTL response vs peptide loaded autologous APC; format: cell-based, human; conditions: 50:1 E:T
[4] = tested on: WT1- allo APC with restricting HLA allele; test: Cr51 release assay, cytotoxic CTL response vs unloaded allogeneic APC sharing restricting HLA allele; format: cell-based, human; conditions: 50:1 E:T
WT1+ leukemia = test: Cr51 release assay, cytotoxic CTL response vs WT1+ leukemia expressing restricting HLA allele; format: cell-based, human; conditions: 50:1 E:T
WT1- leukemia = test: Cr51 release assay, cytotoxic CTL response vs WT1- leukemia; format: cell-based, human; conditions: 50:1 E:T

Compound | Cytotoxic CTL response, % vs WT1- autologous APC (WT1- autologous APC; HLA allele A0201) | Cytotoxic CTL response, % vs WT1+ allo APC with restricting HLA allele loaded with WT1 peptide ([2]; HLA allele A0201) | Cytotoxic CTL response, % vs WT1 peptide loaded autologous APC ([3]; HLA allele A0201) | Cytotoxic CTL response, % vs WT1- allo APC with restricting HLA allele ([4]; HLA allele A0201) | Cytotoxic CTL response, % vs WT1+ leukemia (WT1+ leukemia; HLA allele A0201) | Cytotoxic CTL response, % vs WT1- leukemia (WT1- leukemia; HLA allele A0201) | Cytotoxic CTL response, % vs WT1- autologous APC (WT1- autologous APC; HLA allele B0702) | Cytotoxic CTL response, % vs PHA blasts (PHA blasts; HLA allele B0702) | Cytotoxic CTL response, % vs WT1+ allo APC with restricting HLA allele loaded with WT1 peptide ([2]; HLA allele B0702) | Cytotoxic CTL response, % vs WT1 peptide loaded autologous APC ([3]; HLA allele B0702) | Cytotoxic CTL response, % vs WT1- allo APC with restricting HLA allele ([4]; HLA allele B0702) | Cytotoxic CTL response, % vs WT1+ Leukemia (WT1+ leukemia; HLA allele B0702) | Cytotoxic CTL response, % vs WT1+ leukemia (WT1+ leukemia; HLA allele B0702) | Cytotoxic CTL response, % vs WT1- leukemia (WT1- leukemia; HLA allele B0702) | further results
VLDFAPPGASA |  |  |  |  |  |  |  |  |  |  |  |  |  |  | Lysis of loaded PHA blasts by peptide 41 sensitized T-cells [1]: did not lyse
CSCC[C@H](NC(=O)[C@@H](N)CC(N)=O)C(=O)N[C@@H](Cc1c[nH]cn1)C(=O)N[C@@H](CCC(N)=O)C(=O)N[C@@H](CCCNC(=N)N)C(=O)N[C@@H](CC(N)=O)C(=O)N[C@@H](Cc1c[nH]cn1)C(=O)N[C@H](C(=O)N[C@@H](CCCCN)C(=O)N[C@@H](CC(C)C)C(=O)O)[C@@H](C)O [SEQ ID NO: 183] (H-NMHQRNHTKL-OH; N-terminus and C-terminus assumed) | 2% | 32% | 40% | 4% | 0% | 0% |  |  |  |  |  |  |  |  | Cytotoxic CTL response, % vs WT1- autologous APC (WT1- autologous APC; HLA allele A2402): 19%; Cytotoxic CTL response, % vs WT1- autologous APC (WT1- autologous APC; HLA allele B4001): 0%; Cytotoxic CTL response, % vs PHA blasts (PHA blasts; HLA allele B4001): 1%; Cytotoxic CTL response, % vs WT1+ allo APC with restricting HLA allele loaded with WT1 peptide ([2]; HLA allele A2402): 27%; Cytotoxic CTL response, % vs WT1+ allo APC with restricting HLA allele loaded with WT1 peptide ([2]; HLA allele B4001): 26%; Cytotoxic CTL response, % vs WT1 peptide loaded autologous APC ([3]; HLA allele A2402): 47%; Cytotoxic CTL response, % vs WT1 peptide loaded autologous APC ([3]; HLA allele B4001): 31%; Cytotoxic CTL response, % vs WT1- allo APC with restricting HLA allele ([4]; HLA allele A2402): 13%; Cytotoxic CTL response, % vs WT1- allo APC with restricting HLA allele ([4]; HLA allele B4001): 1%; Cytotoxic CTL response, % vs WT1+ leukemia (WT1+ leukemia; HLA allele A2402): 0%; Cytotoxic CTL response, % vs WT1+ Leukemia (WT1+ leukemia; HLA allele B4001): 72%; Cytotoxic CTL response, % vs WT1+ leukemia (WT1+ leukemia; HLA allele B4001): 72%; Cytotoxic CTL response, % vs WT1- leukemia (WT1- leukemia; HLA allele A2402): 0%; Cytotoxic CTL response, % vs WT1- leukemia (WT1- leukemia; HLA allele B4001): 3%
CC(C)C[C@H](NC(=O)[C@H](C)NC(=O)CNC(=O)[C@@H]1CCCN1C(=O)[C@H](Cc1c[nH]cn1)NC(=O)[C@@H]1CCCN1C(=O)[C@H](CCCNC(=N)N)NC(=O)[C@H](CCC(N)=O)NC(=O)[C@@H](N)CCCNC(=N)N)C(=O)O [SEQ ID NO: 142, RQRPHPGAL] (H-RQRPHPGAL-OH; N-terminus and C-terminus assumed) |  |  |  |  |  |  | 0% | 2% | 53% | 27% | 1% | 67% | 67% | 1% | 
CC(C)C[C@H](NC(=O)[C@H](C)NC(=O)[C@H](CS)NC(=O)CNC(=O)CN)C(=O)N1CCC[C@H]1C(=O)N[C@H](C(=O)N[C@@H](CO)C(=O)NCC(=O)N[C@@H](C)C(=O)O)C(C)C [SEQ ID NO: 153] (H-GGCALPVSGA-OH; N-terminus and C-terminus assumed) | 8% | 25% | 32% | 3% | 47% | 3% |  |  |  |  |  |  |  |  | Cytotoxic CTL response, % vs PHA blasts (PHA blasts; HLA allele A0201): 6%; Cytotoxic CTL response, % vs WT1+ Leukemia (WT1+ leukemia; HLA allele A0201): 47%
CC(C)C[C@H](NC(=O)[C@H](C)NC(=O)CN)C(=O)N[C@@H](CCCNC(=N)N)C(=O)N[C@@H](CC(N)=O)C(=O)N1CCC[C@H]1C(=O)N[C@H](C(=O)N[C@@H](C)C(=O)N[C@@H](CS)C(=O)O)[C@@H](C)O [SEQ ID NO: 143] (H-GALRNPTAC-OH; N-terminus and C-terminus assumed) |  |  |  |  |  |  | 0% | 1% | 22% | 30% | 5% | 60% | 60% | 1% | 
